Holding throughout (experiment): NCI tumour cell line growth inhibition, 48 h
The test system of assay [1] is HL-60(TB) leukemia.
Assay [2] concerns OVCAR-8 ovarian.
Assay [3] deals with MDA-MB-231 breast.
The subject of assay [4] is UACC-257 melanoma.
The test system of assay [5] is SN12C renal.
Assay [6] concerns A549 NSCLC.
In assay [7] the test system is HS 578T breast.
The subject of assay [8] is HCT-15 colon.
Assay [9] concerns HOP-92 NSCLC.
In assay [10] the test system is UO-31 renal.

SMILES strings stand for the structures. Values joined by “and” are separate entries in the source; they are usually repeats but may differ in a detail not shown here. Equal values may be shown once.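 In this assay, cells in 96-well plates receive the compound at five concentrations for 48 hours. Endpoints are linearly interpolated between the surrounding concentrations. The concentration for 50% growth inhibition is given as GI50. TGI: concentration producing complete growth inhibition.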

Take `Cc1ccc(S(=O)(=O)CC2(Br)CCc3ccccc3C2=O)cc1` (configuration not stated): the TGI in [1] was 87.3 µM; in [2], 64.8 µM; in assay [3], 84.9 µM; in [4], 44.1 µM; in assay [5], over 100 µM; in [6] it was over 100 µM. The TGI in [7] is over 100 µM; in assay [8] it was 42.5 µM; in assay [9] it was over 100 µM; in assay [10], 50.5 µM.
In the case of `COc1cc(/C=C/c2ccccn2)cc(OC)c1OC`, the TGI in assay [1], in [2], in [3], in [4], in assay [5] and in assay [6] was over 10 µM each time. Also, the TGI in assay [7], in assay [8], in assay [9] and in [10] was over 10 µM throughout.
As to `O=C(Nc1ccccc1)Nc1ccc(Cl)c(Cl)c1`, the GI50 is 3.98 µM in assay [1]; 3.2 µM in [2]; 3.9 µM in assay [3]; 3.73 µM in [4]; 3 µM in [5]; 3.04 µM in [6]. Besides, the GI50 is 2.9 µM in assay [7], 3.22 µM in assay [8], 1520 nM in assay [9] and 2.62 µM in [10]. Also, the TGI is 26.9 µM in assay [1]; 79.3 µM in assay [2]; 25.4 µM in [3]; 32.9 µM in [4]; over 100 µM in assay [5]; over 100 µM in assay [6]. Besides, the TGI in assay [7] is 29 µM; in assay [8], over 100 µM; in assay [9] it was 6.12 µM; in [10], 21.9 µM.
`COc1ccc(/C=C2\CCC(Cc3ccccc3)(CN(C)C)C2=O)cc1` (configuration not stated): the TGI in [1] was 55.3 µM; in assay [2], over 100 µM; in assay [3] it was over 100 µM; in assay [4], 66.2 µM; in assay [5] it was over 100 µM; in assay [6], over 100 µM. In addition, the TGI in assay [7] is over 100 µM; in [8] it was over 70.7 µM; in [9], over 100 µM; in [10], over 100 µM.
In the case of `COC(=O)C1(C)CCCC2(C)c3cc(OC)ccc3C(=O)C(Br)C12` (configuration not stated), the TGI is 4.2 µM in assay [1]; 4.54 µM in [2]; over 10 µM in assay [3]; over 10 µM in assay [4]; over 10 µM in [5]; over 10 µM in assay [6]. The TGI is over 10 µM in [7], over 10 µM in [8], over 10 µM in assay [9] and 3.28 µM in assay [10].
With `O=c1[nH]c(SCc2ccccc2[N+](=O)[O-])nc2nc[nH]c12`, the TGI in [1], in assay [2], in [3], in [4], in assay [5] and in [6] was over 100 µM each time. Also, the TGI in assay [7], in assay [8], in assay [9] and in assay [10] was over 100 µM throughout. The GI50 in assay [3] is > 100 µM and 40.8 µM; in assay [10], > 100 µM and 35.1 µM.
On to `Nc1ccc(C(=O)Nc2ccccc2N)cc1`, for which the TGI in assay [1] was 17.6 µM; in [2], over 100 µM; in assay [3], over 100 µM; in assay [4], over 72.5 µM; in [5], over 100 µM; in assay [6], over 100 µM. Besides, the TGI in [7], in assay [8], in [9] and in assay [10] was over 100 µM throughout.
On to `COC(=O)[C@]12CC[C@@H](C)[C@H](C)[C@@H]1C1=CC[C@@H]3[C@@]4(C)CC(=O)[C@H](O)[C@@](C)(CO)[C@@H]4C(=O)C[C@@]3(C)[C@]1(C)CC2`, for which the GI50 is 9.21 µM in assay [1]; 4.89 µM in assay [2]; 13.6 µM in assay [3]; 16.8 µM in assay [4]; 12.4 µM in [5]; 15.8 µM in assay [6]. In addition, the GI50 in assay [7] was 7.98 µM; in [8] it was 9.37 µM; in assay [9] it was 15300 nM; in [10], 5.7 µM. Moreover, the TGI in assay [1] turned out to be 28.4 µM; in assay [2], 22.6 µM; in assay [3], 29.2 µM; in assay [4] it was 31.7 µM; in assay [5], 27.3 µM; in [6], 32.9 µM. In addition, the TGI amounted to 30.4 µM in [7], 23.3 µM in [8], 30.1 µM in assay [9] and 23.4 µM in assay [10].
Regarding `Oc1cccc(-c2nc(-c3ccccc3)[nH]c2-c2ccncc2)c1`, the GI50 in assay [1] is 7.77 µM; in assay [2], over 25 µM; in [3], 9.59 µM; in [4], 2.97 µM; in assay [5], 15.9 µM; in assay [6], 14.6 µM. The GI50 is 10.2 µM in assay [7], 7.36 µM in assay [8], 5980 nM in [9] and 10.1 µM in assay [10]. The TGI in assay [1] was 19.4 µM; in [2] it was over 25 µM; in assay [3], over 25 µM; in assay [4], 14 µM; in [5], over 25 µM; in assay [6], over 25 µM. The TGI in [7] is over 25 µM; in assay [8], over 20.3 µM; in [9] it was 24.2 µM; in assay [10] it was over 25 µM.
With `Fc1ccc(C2C3CCOc4c(ccc5ccccc45)C3=NN2c2ccccc2)cc1` (configuration not stated), the GI50 was over 100 µM in assay [1]; over 60.2 µM in [2]; 43.8 µM in assay [3]; 43.9 µM in [4]; over 100 µM in assay [5]; 48.9 µM in assay [6]. The GI50 in [7] is over 88.6 µM; in [8], 9.34 µM; in assay [9], over 84600 nM; in [10], over 100 µM. Further, the TGI in [1], in assay [2], in [3], in [4], in assay [5] and in [6] was over 100 µM each time. The TGI in assay [7], in assay [8], in [9] and in [10] was over 100 µM each time.
Take `CNCCN(C)Cc1cn[nH]c1-c1ccc(OC2CC(OCCC3CCOCC3)C2)cc1` (configuration not stated): the GI50 in assay [1] was over 80.1 µM; in assay [2], over 100 µM; in [3] it was 40.7 µM; in assay [4] it was 61.6 µM; in [5], over 100 µM; in [6], over 100 µM. Also, the GI50 is 63.1 µM in [7], over 100 µM in assay [8], 1430 nM in assay [9] and 28 µM in assay [10]. Also, the TGI in [1], in assay [2], in [3], in assay [4], in assay [5] and in assay [6] was over 100 µM throughout. Also, the TGI in assay [7] was over 100 µM; in assay [8], over 100 µM; in assay [9] it was over 50.8 µM; in assay [10] it was over 100 µM.
For the compound `O=C(c1ccco1)c1c(C(F)(F)F)n([O-])c2ccc(F)cc2[n+]1=O`, the GI50 was 0.186 µM in assay [1]; 0.558 µM in [2]; 1.61 µM in assay [3]; 1.47 µM in assay [4]; 1.33 µM in [5]; 3.08 µM in assay [6]. The GI50 in assay [7] was 1.84 µM; in assay [8] it was 0.219 µM; in assay [9] it was 802 nM; in assay [10] it was 1.6 µM. Moreover, the TGI in assay [1] is 0.452 µM; in [2], 1.17 µM; in assay [3] it was 3.44 µM; in [4] it was 2.81 µM; in assay [5], 3.38 µM; in assay [6] it was 9.87 µM. Further, the TGI worked out at 7.08 µM in [7], 0.855 µM in assay [8], 2.55 µM in [9] and 3 µM in [10].
Turning to `Cc1cc2c(cc1Cl)SC(C(=O)c1ccc(Cl)c(Cl)c1)NS2(=O)=O` (configuration not stated), the GI50 in [1] was 39.8 µM; in [2] it was 44.5 µM; in assay [3], 36.7 µM; in [4], 67.2 µM; in [5] it was 32 µM; in [6], 45.2 µM. Moreover, the GI50 in assay [7] was 70 µM; in [8] it was 28.7 µM; in assay [9] it was 25200 nM; in assay [10], 42.2 µM. Besides, the TGI in [1] was 80.6 µM; in assay [2], over 100 µM; in assay [3] it was over 100 µM; in [4], over 100 µM; in assay [5], 86.4 µM; in assay [6] it was over 100 µM. The TGI is over 100 µM in assay [7], 76.1 µM in assay [8], 65.9 µM in [9] and over 100 µM in assay [10].
Turning to `CC12CC(=O)C3C(CCC4=CC(=O)CCC43C)C1CC=C2CC(=O)O` (configuration not stated), the TGI in assay [1], in assay [2], in assay [3], in assay [4], in assay [5] and in assay [6] was over 100 µM in each case. Besides, the TGI in assay [7], in assay [8], in [9] and in assay [10] was over 100 µM throughout.
With `COC1=CC2CCN3Cc4cc5c(cc4C(C1O)C23)OCC5` (configuration not stated), the GI50 was 4.75 µM in [1]; 3.75 µM in assay [2]; 2.86 µM in assay [3]; 2.09 µM in assay [4]; 1.06 µM in assay [5]; 1.26 µM in assay [6]. The GI50 in assay [7] was 5.7 µM; in assay [8], 1.31 µM; in assay [9] it was 2970 nM; in assay [10], 5.88 µM. Moreover, the TGI was over 25.7 µM in [1]; 37.3 µM in [2]; 22.6 µM in [3]; 34.6 µM in assay [4]; 6.08 µM in assay [5]; 8.19 µM in assay [6]. Further, the TGI was over 32.7 µM in [7], 8.49 µM in [8], over 28 µM in assay [9] and over 46.6 µM in assay [10].
For the compound `O=C1/C(=C/c2ccccc2[N+](=O)[O-])COc2ccc(O)c(O)c21`, the GI50 in assay [1] was 0.745 µM; in assay [2], 0.525 µM; in [3], 0.799 µM; in [4] it was 1.42 µM; in assay [5], 0.679 µM; in [6], 2.61 µM. Moreover, the GI50 in assay [7] is 2.05 µM; in assay [8], 0.286 µM; in assay [9] it was 1100 nM; in [10], 0.295 µM. The TGI was 8.13 µM in assay [1]; 18.6 µM in [2]; 2.68 µM in assay [3]; 4.06 µM in assay [4]; 6.05 µM in assay [5]; 12.4 µM in assay [6]. For the same compound, the TGI stood at 12.6 µM in assay [7], 1.15 µM in assay [8], 2.9 µM in assay [9] and 2.03 µM in [10].
`CC(C)[C@H](C(=O)O[C@@H]1/C=C/C(=O)O[C@@H](C)CCC/C=C/[C@@H]2C[C@H](O)C[C@H]21)N(C)C`: the GI50 was 28.2 µM in [1]; 13.2 µM in [2]; 12.8 µM in assay [3]; 15.2 µM in [4]; 26.7 µM in assay [5]; 14.6 µM in [6]. Also, the GI50 in assay [7] is 2.2 µM; in assay [8], 14.1 µM; in [9], 36400 nM; in [10], 15 µM. The TGI in assay [1] was 50.7 µM; in assay [2], over 68.9 µM; in [3], 51.9 µM; in assay [4], 71.1 µM; in assay [5], over 68.7 µM; in assay [6] it was over 94.4 µM. Also, the TGI in assay [7] is 45.9 µM; in assay [8], 34.5 µM; in assay [9], 96.4 µM; in [10], over 83.7 µM.

(Values after PubChem BioAssay (NCI).)
